target: Nonstructural protein 3 (Zika virus, UniProt A0A024AXB9); experiment: Functional biochemical assay to identify treatments for viral infectious disease that targets Zika NS2B-NS3 protease. Utilizing a direct enzyme activity measurement method, reading the fluorescence intensity is used to characterize the relative potency of inhibitors as IC50.; set-up: species or system PRVABC59
Sequence (A0A024AXB9 whole entry): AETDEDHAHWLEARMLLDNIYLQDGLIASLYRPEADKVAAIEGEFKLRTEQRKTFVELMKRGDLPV

IC50 [µM] | SMILES
> 99.5 | NCc1cccc(NC(=O)[C@@H](NC(=O)OCc2ccccc2)C2CCN(S(=O)(=O)C3CCCC3)CC2)c1
2.7 | NCc1cccc(NC(=O)c2cc(Cl)cc(-n3cccc3)c2)c1
> 99.5 | NCc1cccc(NC(=O)[C@@H](NC(=O)OCc2ccccc2)C2CCN(C(=O)C3CC3)CC2)c1
> 99.5 | NCc1cccc(NC(=O)[C@@H](NC(=O)OCc2ccccc2)C2CCN(Cc3cn[nH]c3)CC2)c1
> 99.5 | Cn1nc2c(c1NC(=O)c1cc(Cl)cc(NC(=O)OCc3ccccc3)c1)CCNC2
> 99.5 | C[C@@H]1CNC[C@H]1c1ccc(NC(=O)c2ccc3c(c2)SCCN3)cc1
> 99.5 | NCc1cccc(NC(=O)c2ccc(F)c(NC(=O)OCc3ccccc3)c2F)c1
> 99.5 | Cc1nnsc1CN1CCC([C@@H](NC(=O)OCc2ccccc2)C(=O)Nc2cccc(CN)c2)CC1
86.2 | N#Cc1ccc(N2CCN(Cc3c[nH]c4ccccc34)CC2)cc1
> 99.5 | NCc1cccc(NC(=O)[C@@H](NC(=O)OCc2ccccc2)C2CCN(Cc3cccnc3)CC2)c1
11 | N#Cc1cc(Cl)cc(C(=O)Nc2cccc(CN)c2)c1
34.4 | c1ccc(-c2[nH]c3ccccc3c2CN2CCC(c3cscn3)CC2)cc1
> 99.5 | NCc1cccc(NC(=O)[C@@H](NC(=O)OCc2ccccc2)C2CCN(C(=O)c3cscn3)CC2)c1
61.7 | NCc1cccc(NC(=O)c2cc(Cl)ccc2Oc2cccc(Cl)c2)c1
> 99.5 | NCC12CC(NC(=O)c3cc(Cl)cc(NC(=O)OCc4ccccc4)c3)(CCO1)C2
13.9 | COc1c(Cl)cc(Cl)cc1C(=O)Nc1cccc(CN)c1
> 99.5 | O=C(Cn1ccnc(N2CC[C@H](CO)C2)c1=O)N[C@H]1CCOC1
> 99.5 | CCCOc1ccc2[nH]cc(CN3CCC(c4cscn4)CC3)c2c1
22.3 | NCc1cccc(/C=C/c2cc(Cl)cc(NC(=O)OCc3ccccc3)c2)c1
> 99.5 | NS(=O)(=O)c1ccccc1N1CCN(Cc2c[nH]c3ccccc23)CC1
> 99.5 | NCc1cccc(NC(=O)[C@@H](NC(=O)OCc2ccccc2)c2ccc(OCc3ccccn3)cc2)c1
> 99.5 | C=CC[C@]1(NC(=O)c2cc(Cl)cc(NC(=O)OCc3ccccc3)c2)CCNC1
3.2 | CCOC(=O)Nc1cc(Cl)cc(C(=O)Nc2cccc(CN)c2)c1
65.1 | NCc1cccc(NC(=O)[C@@H](NC(=O)OCc2ccccc2)c2ccc(OCc3nc4c(s3)COCC4)cc2)c1

IC50 [µM] | SMILES
> 99.5 | O=C(Nc1cc(Cl)cc(C(=O)NC[C@@]23CN[C@H](CCO2)C3)c1)OCc1ccccc1
4.35 | NCc1ccc(F)c(NC(=O)c2cc(Cl)cc(NC(=O)OCc3ccccc3)c2)c1
> 99.5 | NC[C@@H](NC(=O)c1cc(Cl)cc(NC(=O)OCc2ccccc2)c1)c1ccccc1
> 99.5 | O=C(Nc1cc(Cl)cc(C(=O)NC[C@@H]2CNCCC2(F)F)c1)OCc1ccccc1
> 99.5 | c1ccc(N2CCN(Cc3c[nH]c4ccccc34)CC2)nc1
> 99.5 | c1ccc(COc2ccc3c(CN4CCC(c5cscn5)CC4)c[nH]c3c2)cc1
> 99.5 | NCc1cccc(NC(=O)[C@@H](NC(=O)OCc2ccccc2)C2CCN(S(=O)(=O)Cc3cscn3)CC2)c1
21 | CCc1[nH]c2ccccc2c1CN1CCC(c2cscn2)CC1
46.1 | O=C(Nc1cc(Cl)cc(C(=O)NC[C@H]2CC3(CNC3)CO2)c1)OCc1ccccc1
32.9 | NCc1ccc(CNC(=O)c2cc(Cl)cc(NC(=O)OCc3ccccc3)c2)c(F)c1
> 99.5 | NCc1cccc(NC(=O)[C@@H](NC(=O)OCc2ccccc2)c2ccc(OC[C@H]3CCS(=O)(=O)C3)cc2)c1
> 99.5 | CCC1(NC(=O)Cn2ccnc(N3CC[C@@H](CO)C3)c2=O)CC1
> 99.5 | NCc1cccc(NC(=O)c2cc(Cl)cc(Cl)c2O)c1
> 99.5 | O=C(Nc1cc(Cl)cc(C(=O)NC[C@@]23CC[C@H](CNC2)C3)c1)OCc1ccccc1
67 | NC[C@H]1C[C@](F)(CNC(=O)c2cc(Cl)cc(NC(=O)OCc3ccccc3)c2)C1
> 99.5 | NCc1cccc(NC(=O)[C@@H](NC(=O)OCc2ccccc2)C2CCN(S(=O)(=O)[C@H]3CCOC3)CC2)c1
3.52 | CC(=O)Nc1cc(Cl)cc(C(=O)Nc2cccc(CN)c2)c1
49.4 | NC[C@]12CC[C@](NC(=O)c3cc(Cl)cc(NC(=O)OCc4ccccc4)c3)(CO1)C2
> 99.5 | NCc1cccc(NC(=O)[C@@H](NC(=O)OCc2ccccc2)C2CCN(S(=O)(=O)Cc3ncon3)CC2)c1
19.6 | CNCc1cccc(NC(=O)c2cc(Cl)cc(NC(=O)OCc3ccccc3)c2)c1
> 99.5 | NCc1cccc(NC(=O)[C@@H](NC(=O)OCc2ccccc2)C2CCN(C3CCOCC3)CC2)c1
24.9 | Clc1ccc2c(CN3CCC(c4c[nH]c5ncccc45)CC3)c[nH]c2c1
> 99.5 | O=C(Nc1cc(Cl)cc(C(=O)NC[C@H]2CCNC3(CC3)C2)c1)OCc1ccccc1
> 99.5 | Cc1ncc(COc2ccc([C@@H](NC(=O)OCc3ccccc3)C(=O)Nc3cccc(CN)c3)cc2)o1

IC50 [µM] | SMILES
76.1 | O=C(Nc1cc(Cl)cc(C(=O)N[C@@]23CCCCC[C@@H]2NCC3)c1)OCc1ccccc1
69.7 | N[C@H]1CC[C@H](NC(=O)c2cc(Cl)cc(NC(=O)OCc3ccccc3)c2)C1
> 99.5 | COCC(=O)N1CCC([C@@H](NC(=O)OCc2ccccc2)C(=O)Nc2cccc(CN)c2)CC1
4.37 | CCCC(=O)Nc1cc(Cl)cc(C(=O)Nc2cccc(CN)c2)c1
> 99.5 | Cc1nccn1-c1ccc(Cl)cc1C(=O)Nc1cccc(CN)c1
> 99.5 | CC(C)S(=O)(=O)N1CCC([C@@H](NC(=O)OCc2ccccc2)C(=O)Nc2cccc(CN)c2)CC1
> 99.5 | CS(=O)(=O)N1CCC([C@@H](NC(=O)OCc2ccccc2)C(=O)Nc2cccc(CN)c2)CC1
7.69 | O=C(Nc1cc(Cl)cc(C(=O)Nc2ccc3c(c2)CNCCO3)c1)OCc1ccccc1
> 99.5 | O=C(Nc1cc(Cl)cc(C(=O)NC[C@H]2CNC3(CC3)CO2)c1)OCc1ccccc1
> 99.5 | O=C(Nc1cc(Cl)cc(C(=O)NC2([C@H]3CCNC3)CC2)c1)OCc1ccccc1
61 | N[C@@H]1CC[C@H](CCNC(=O)c2cc(Cl)cc(NC(=O)OCc3ccccc3)c2)C1
> 99.5 | NCc1cccc(NC(=O)[C@@H](NC(=O)OCc2ccccc2)c2ccc(OCCN3CCCCC3)cc2)c1
39 | Cc1cc(C(=O)Nc2cccc(CN)c2)cc(NC(=O)OCc2ccccc2)c1Cl
45.3 | N[C@@H]1CC[C@H](NC(=O)c2cc(Cl)cc(NC(=O)OCc3ccccc3)c2)C1
> 99.5 | NCc1cccc(NC(=O)[C@@H](NC(=O)OCc2ccccc2)c2ccc(OCc3cnccn3)cc2)c1
5.86 | NCc1cc(F)cc(NC(=O)c2cc(Cl)cc(NC(=O)OCc3ccccc3)c2)c1
82.3 | CN1CCC(COc2ccc([C@@H](NC(=O)OCc3ccccc3)C(=O)Nc3cccc(CN)c3)cc2)CC1
21.9 | Cn1nc2c(c1NC(=O)c1cc(Cl)cc(NC(=O)OCc3ccccc3)c1)CNCC2
> 99.5 | NS(=O)(=O)c1cccc(N2CCN(Cc3c[nH]c4ccccc34)CC2)c1
> 99.5 | CCCN(C)CC(=O)N1CCC([C@@H](NC(=O)OCc2ccccc2)C(=O)Nc2cccc(CN)c2)CC1
> 99.5 | Cc1csc(N2CCN(Cc3c[nH]c4ccccc34)CC2)n1
22.7 | C[C@@H](N)c1cccc(NC(=O)c2cc(Cl)cc(NC(=O)OCc3ccccc3)c2)c1
